target: hKIF18A (1-374) (Homo sapiens (Human), UniProt Q8NI77); assay: Inhibition of KIF18A microtubule-dependent ATPase activity (ADP-Glo); settings: KIF18A microtubule-dependent ATPase activity, biochemical assay
Sequence (Q8NI77 whole entry, looked up): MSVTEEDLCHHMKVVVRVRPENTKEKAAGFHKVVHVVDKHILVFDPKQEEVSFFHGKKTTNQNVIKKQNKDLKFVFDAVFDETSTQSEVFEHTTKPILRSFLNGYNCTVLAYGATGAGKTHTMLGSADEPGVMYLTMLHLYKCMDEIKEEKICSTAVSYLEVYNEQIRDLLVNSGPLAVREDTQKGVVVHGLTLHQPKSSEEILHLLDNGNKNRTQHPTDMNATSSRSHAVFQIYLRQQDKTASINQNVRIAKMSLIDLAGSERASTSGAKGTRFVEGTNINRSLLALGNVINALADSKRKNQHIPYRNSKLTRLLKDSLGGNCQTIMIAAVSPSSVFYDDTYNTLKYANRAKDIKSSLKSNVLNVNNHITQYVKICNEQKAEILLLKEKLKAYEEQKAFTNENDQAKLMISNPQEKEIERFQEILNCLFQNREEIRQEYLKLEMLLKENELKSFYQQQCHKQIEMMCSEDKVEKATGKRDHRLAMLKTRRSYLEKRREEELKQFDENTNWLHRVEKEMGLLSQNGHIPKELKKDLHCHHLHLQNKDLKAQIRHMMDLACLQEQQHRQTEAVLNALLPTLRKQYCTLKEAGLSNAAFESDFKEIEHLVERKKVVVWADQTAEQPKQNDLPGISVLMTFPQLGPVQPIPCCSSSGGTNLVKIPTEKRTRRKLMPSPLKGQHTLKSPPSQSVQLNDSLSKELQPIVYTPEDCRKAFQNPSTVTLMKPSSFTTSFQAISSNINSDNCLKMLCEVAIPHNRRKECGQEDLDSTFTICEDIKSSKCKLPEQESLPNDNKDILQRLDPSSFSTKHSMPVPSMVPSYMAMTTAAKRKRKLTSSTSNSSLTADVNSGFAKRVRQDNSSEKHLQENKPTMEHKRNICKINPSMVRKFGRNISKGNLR
Sequence (Q2XVP4 whole entry partner, looked up): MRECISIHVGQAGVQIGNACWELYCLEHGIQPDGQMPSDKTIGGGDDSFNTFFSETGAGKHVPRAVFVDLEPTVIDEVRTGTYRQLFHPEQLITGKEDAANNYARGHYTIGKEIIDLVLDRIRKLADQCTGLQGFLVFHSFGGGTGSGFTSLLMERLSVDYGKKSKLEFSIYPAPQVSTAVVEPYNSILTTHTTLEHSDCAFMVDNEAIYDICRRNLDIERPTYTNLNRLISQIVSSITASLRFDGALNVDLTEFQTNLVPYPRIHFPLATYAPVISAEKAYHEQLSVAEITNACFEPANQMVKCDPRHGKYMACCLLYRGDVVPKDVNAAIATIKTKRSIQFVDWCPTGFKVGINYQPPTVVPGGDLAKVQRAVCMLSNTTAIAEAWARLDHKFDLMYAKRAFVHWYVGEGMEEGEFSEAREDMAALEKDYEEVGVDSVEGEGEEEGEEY
Sequence (P02554 whole entry partner, looked up): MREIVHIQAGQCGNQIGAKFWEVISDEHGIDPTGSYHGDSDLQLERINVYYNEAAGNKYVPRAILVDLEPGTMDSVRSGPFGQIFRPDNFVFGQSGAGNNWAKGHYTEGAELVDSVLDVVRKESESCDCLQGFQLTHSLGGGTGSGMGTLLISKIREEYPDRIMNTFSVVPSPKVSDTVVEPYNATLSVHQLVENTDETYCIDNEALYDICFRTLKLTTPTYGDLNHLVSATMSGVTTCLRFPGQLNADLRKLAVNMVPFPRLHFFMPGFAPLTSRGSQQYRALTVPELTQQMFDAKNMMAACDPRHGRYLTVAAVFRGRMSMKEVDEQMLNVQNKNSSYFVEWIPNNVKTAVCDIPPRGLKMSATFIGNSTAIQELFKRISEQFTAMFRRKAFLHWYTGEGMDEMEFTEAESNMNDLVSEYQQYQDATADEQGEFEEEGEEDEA
Procedure: Biological Assays Inhibition of KIF18A Microtubule-Dependent ATPase Activity:
Test compounds were plated in a 3× dilution scheme in a 384-well plate. Assay buffer: 80 mM PIPES (pH 6.9), 1 mM MgCl2, 75 mM KCl, 1 mM EGTA, 1 mM DTT, 0.01% BSA, 0.005% Tween-20, 1 μM Taxol in H2O. […] After incubation at room temperature for 30 min, 2.5 μL of microtubule mix was added [0.2 mg/mL pre-formed microtubules, 2.0 mM ATP in assay buffer], the plate was centrifuged for 30 s and then incubated at 28° C. for 60 min. 5 μL of Promega® ADP-Glo Max R1 was added, the plate was centrifuged for 30 s, and the mixture incubated for 4 h at room temperature. 10 μL of Promega® ADP-Glo Max R2 was added, the plate centrifuged for 30 s, and incubated for 60 min at room temperature. Luminescence was measured with an Envision plate reader, and % Inhibition was calculated for each well as: ([max−min]−[test−min])/[max−min]. IC50 values were calculated from concentration vs. % Inhibition data via a four-parameter variable slope model.

SMILES	IC50
CS(=O)(=O)Nc1ccc2c(c1)C1(CCC3(CC3)CC1)CN2C(=O)c1cccc(C(F)(F)C2CCCC2)c1 [Compound 306, N-(1″-(3-(cyclopentyldifluoromethyl)benzoyl)dispiro[cyclopropane-1,1′-cyclohexane-4′,3″-indolin]-5″- yl)methanesulfonamide]	33 nM
CS(=O)(=O)Nc1ccc2c(c1)C1(CCC3(CC3)CC1)CN2C(=O)c1cccc(C(=O)C2CCCC2)c1 [Compound 164, N-(1″-(3-(cyclopentanecarbonyl)benzoyl)dispiro[cyclopropane-1,1′-cyclohexane-4′,3″- indolin]-5″-yl)methanesulfonamide]	120 nM
CS(=O)(=O)Nc1ccc2c(c1)C1(CCC3(CC3)CC1)CN2C(=O)c1cccc(C(O)C2CCC2)c1 (stereo not drawn) [Compound 313, N-(1″-(3-(cyclobutyl(hydroxy)methyl)benzoyl)dispiro[cyclopropane-1,1′-cyclohexane-4′,3″-indolin]-5″- yl)methanesulfonamide]	20 nM
CCS(=O)(=O)Nc1ccc2c(c1)C1(CCC3(CC3)CC1)CN2C(=O)c1ccc([C@@H](O)C(C)(C)C)o1 (single isomer, unassigned) [Compound 372b]	35 nM
CC(C)(C)NS(=O)(=O)c1cccc(C(=O)N2C[C@]3(CC[C@@H](C(F)F)CC3)c3cc(NS(C)(=O)=O)ccc32)c1 [Compound 162b]	37 nM
CCS(=O)(=O)Nc1ccc2c(c1)C1(CCC3(CC3)CC1)CN2C(=O)c1ccc([C@H](O)C(C)(C)C)o1 (single isomer, unassigned) [Compound 372a]	37 nM
CC1(NS(=O)(=O)c2cccc(C(=O)N3CC4(CCC5(CC5)CC4)c4cc(NS(C)(=O)=O)ccc43)c2)CC(F)(F)C1 [Compound 224, N-(3,3-difluoro-1-methylcyclobutyl)-3-(5″- (methylsulfonamido)dispiro[cyclopropane-1,1′-cyclohexane-4′,3″-indoline]-1″-carbonyl)benzenesulfonamide]	23 nM
CC(C)(C)[C@H](O)c1ccc(C(=O)N2CC3(CCC4(CC4)CC3)c3cc(NS(=O)(=O)CCO)ccc32)o1 (single isomer, unassigned) [Compound 371b]	40 nM
CS(=O)(=O)Nc1ccc2c(c1)C1(CCCCC1)CN2C(=O)c1cccc(S(=O)(=O)NC2CC2)c1 [Compound 46, N-cyclopropyl-3-(5′-(methylsulfonamido)spiro[cyclohexane-1,3′-indoline]-1′-carbonyl)benzenesulfonamide]	120 nM
CC(C)(C)NS(=O)(=O)c1ccc(F)c(C(=O)N2CC3(CCCCC3)c3cc(NS(C)(=O)=O)ccc32)c1 [Compound 97, N-(tert-butyl)-4-fluoro-3-(5′-(methylsulfonamido)spiro[cyclohexane-1,3′-indoline]-1′-carbonyl)benzenesulfonamide]	850 nM
CS(=O)(=O)Nc1ccc2c(c1)C1(CCC3(CC3)CC1)CN2C(=O)c1csc(C(O)C2CCCC2)c1 (stereo not drawn) [Compound 301, N-(1″-(5-(cyclopentyl(hydroxy)methyl)thiophene-3-carbonyl)dispiro[cyclopropane-1,1′-cyclohexane-4′,3″-indolin]-5″-yl)methanesulfonamide]	21 nM
CC1(C)CCN1S(=O)(=O)c1cccc(C(=O)N2CC3(CCC4(CC4)CC3)c3cc(NS(C)(=O)=O)ccc32)c1 [Compound 245, N-(1″-(3-((2,2-dimethylazetidin-1-yl)sulfonyl)benzoyl)dispiro[cyclopropane-1,1′-cyclohexane-4′,3″-indolin]-5″- yl)methanesulfonamide]	34 nM
CS(=O)(=O)Nc1ccc2c(c1)C1(CCCCC1)CN2C(=O)c1cccc(S(=O)(=O)N2CC3CC3C2)c1 (stereo not drawn) [Compound 25, N-(1′-(3-((3-azabicyclo[3.1.0]hexan-3-yl)sulfonyl)benzoyl)spiro[cyclohexane-1,3′-indolin]-5′-yl)methanesulfonamide]	120 nM
CC1=CCC2(CC1)CN(C(=O)c1cccc(S(=O)(=O)NC(C)(C)C)c1)c1ccc(NS(C)(=O)=O)cc12 (stereo not drawn) [Compound 295, N-(tert-butyl)-3-(4-methyl-5′-(methylsulfonamido)spiro[cyclohexane-1,3′-indolin]-3-en-1′-carbonyl)benzenesulfonamide]	38 nM

Stronger by IC50, values ahead:

IC50	SMILES
19 nM	COc1ccc(C(=O)N2CC3(CCC4(CC4)CC3)c3cc(NS(C)(=O)=O)ccc32)cc1S(=O)(=O)N1CC(F)(F)C1 [Compound 302, N-(1″-(3-((3,3-difluoroazetidin-1-yl)sulfonyl)-4-methoxybenzoyl)dispiro[cyclopropane-1,1′-cyclohexane-4′,3″-indolin]-5″- yl)methanesulfonamide]
17 nM	CS(=O)(=O)Nc1ccc2c(c1)[C@]1(CC[C@H](C(F)F)CC1)CN2C(=O)c1cccc(S(=O)(=O)NC23CC(C2)C3)c1 [Compound 336b]
16 nM	CC(C)C(C)NS(=O)(=O)c1cccc(C(=O)N2CC3(CCC4(CC4)CC3)c3cc(NS(C)(=O)=O)ccc32)c1 (stereo not drawn) [Compound 210, N-(3-methylbutan-2-yl)-3-(5″- (methylsulfonamido)dispiro[cyclopropane-1,1′-cyclohexane-4′,3″-indoline]-1″-carbonyl)benzenesulfonamide]
15 nM	CS(=O)(=O)Nc1ccc2c(c1)C1(CCC3(CC3)CC1)CN2C(=O)c1cccc(S(=O)(=O)N2CC[C@H](F)C2)c1 [(S)-Compound 239, (S)-N-(1″-(3-((3-fluoropyrrolidin-1-yl)sulfonyl)benzoyl)dispiro[cyclopropane-1,1′-cyclohexane-4′,3″-indolin]-5″- yl)methanesulfonamide]
12 nM	CS(=O)(=O)Nc1ccc2c(c1)C1(CCC3(CC3)CC1)CN2C(=O)c1cccc(S(=O)(=O)NC2CC2)c1 [Compound 212, N-cyclopropyl-3-(5″- (methylsulfonamido)dispiro[cyclopropane-1,1′-cyclohexane-4′,3″-indoline]-1″-carbonyl)benzenesulfonamide]
12 nM	CS(=O)(=O)Nc1ccc2c(c1)C1(CCC3(CC3)CC1)CN2C(=O)c1cccc([C@@H](O)C2CC(F)(F)C2)c1 [Compound 351b]
12 nM	CC1CN(S(=O)(=O)c2cccc(C(=O)N3CC4(CCC5(CC5)CC4)c4cc(NS(C)(=O)=O)ccc43)c2)C1 [Compound 260, N-(1″-(3-((3-methylazetidin-1-yl)sulfonyl)benzoyl)dispiro[cyclopropane-1,1′-cyclohexane-4′,3″-indolin]-5″- yl)methanesulfonamide]
12 nM	CC(NS(=O)(=O)c1cccc(C(=O)N2CC3(CCC4(CC4)CC3)c3cc(NS(C)(=O)=O)ccc32)c1)C1CC1 (stereo not drawn) [Compound 186, N-(1-cyclopropylethyl)-3-(5″- (methylsulfonamido)dispiro[cyclopropane-1,1′-cyclohexane-4′,3″-indoline]-1″-carbonyl)benzenesulfonamide]
6 nM	CC(C)(C)NS(=O)(=O)c1cc(C(=O)N2CC3(CCC4(CC4)CC3)c3cc(NS(=O)(=O)CCO)ccc32)cs1 [Compound 274, N-(tert-butyl)-4-(5″-((2-hydroxyethyl)sulfonamido)dispiro [cyclopropane-1,1′-cyclohexane-4′,3″- indoline]-1″-carbonyl)thiophene-2-sulfonamide]
5.1 nM	CS(=O)(=O)Nc1ccc2c(c1)C1(CCC3(CC3)CC1)CN2C(=O)c1cc(C(O)C2CCCC2)cs1 (stereo not drawn) [Compound 364, N-(1″-(4-(cyclopentyl(hydroxy)methyl)thiophene-2-carbonyl)dispiro[cyclopropane-1,1′-cyclohexane-4′,3″-indolin]-5″- yl)methanesulfonamide]

Source: patent US12084420B2, “Indoline compounds for inhibiting KIF18A” (Volastra Therapeutics, Inc., priority 2021, dated 2024)
